Measured values published in ChEMBL document CHEMBL1201862, “PubChem BioAssay data set” (2004).
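The compound was tested at five concentrations on cells cultured in 96-well plates, with a 48-hour exposure period. The concentration for 50% growth inhibition is given as GI50.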 Calls of active or inactive are those of the source. Rule as the data show it: active = GI50 up to about 1.1 µM and inactive = higher.

Experiments:
Assay in all cases: NCI-60 cell line screen, 48 h
[1] = system: UO-31
[2] = system: ACHN
[3] = system: LOX IMVI
[4] = system: MCF7
[5] = system: Hs-578T
[6] = system: NCI-H23
[7] = system: MOLT-4
[8] = system: HCT-15
[9] = system: OVCAR-4
[10] = system: HCC 2998
[11] = system: 786-0
[12] = system: CCRF-CEM
[13] = system: A498
[14] = system: OVCAR-3
[15] = system: HOP-92
[16] = system: RPMI-8226
[17] = system: UACC-257
[18] = system: DU-145
[19] = system: KM12
[20] = system: CAKI-1

Row | SMILES | GI50 [1] | GI50 [2] | GI50 [3] | GI50 [4] | GI50 [5] | GI50 [6] | GI50 [7] | GI50 [8] | GI50 [9] | GI50 [10] | GI50 [11] | GI50 [12] | GI50 [13] | GI50 [14] | GI50 [15] | GI50 [16] | GI50 [17] | GI50 [18] | GI50 [19] | GI50 [20]
1 | C[C@]12CC[C@H]3[C@@H](CCC4=C[C@@H](OC5OCC(OC6OC(CO)C(O)C(O)C6O)C(O)C5O)CC[C@@]43C=O)[C@@]1(O)CCC2C1=CC(=O)OC1 (stereo not given in full) | 0.561 µM (active) | 0.137 µM (active) | 0.63 µM (active) | 0.94 µM (active) | 0.522 µM (active) | 0.195 µM (active) | 0.0986 µM (active) | 0.504 µM | 0.237 µM (active) | 0.421 µM (active) | 0.365 µM (active) | 0.244 µM (active) | 0.755 µM (active) | 0.375 µM (active) | 1.11 µM (active) | 0.628 µM (active) | 1.42 µM (inactive) | 0.435 µM (active) | 2.71 µM (inactive) | 0.347 µM (active)
2 | CC[C@H](C)[C@@H]([C@@H](CC(=O)N1CCC[C@H]1[C@H](OC)[C@@H](C)C(=O)NCCc1ccccc1)OC)N(C)C(=O)C(NC(=O)[C@H](C(C)C)N(C)C)C(C)C (stereo not given in full) | 0.00103 µM (active) | 0.000757 µM (active) | 0.000299 µM (active) | 4.54e-05 µM (active) | 0.000446 µM (active) | 0.000314 µM (active) | 0.000132 µM (active) | 0.00201 µM | 0.00094 µM (active) | 0.000266 µM (active) | 0.00021 µM (active) | 0.000219 µM (active) | 0.000266 µM (active) | 4.09e-05 µM (active) | 0.0069 µM (active) | 0.000203 µM (active) | 0.00139 µM (active) | 0.000227 µM (active) | 8.57e-05 µM (active) | 0.00216 µM (active)
3 | COC(=O)C1(Cc2ccccc2)Cc2ccc3c(c2C1=O)CCC3 (stereo not given) | 18 µM (inactive) | 51.4 µM (inactive) | 39.3 µM (inactive) | 23.1 µM (inactive) | 3.95 µM (inactive) | 32.2 µM (inactive) | 20.6 µM (inactive) | 35 µM | > 29.9 µM (inactive) | 38.1 µM (inactive) | 33.7 µM (inactive) | 26.9 µM (inactive) | 35.4 µM (inactive) | > 49 µM (inactive) | 20.8 µM (inactive) | 25.4 µM (inactive) | 35.2 µM (inactive) | > 75.3 µM (inactive) | 31.8 µM (inactive) | 9.73 µM (inactive)
4 | CCCCON1C[C@@H](O)C(O)[C@@H](O)C1 (stereo not given in full) | > 100 µM (inactive) | > 100 µM (inactive) | > 100 µM (inactive) | > 100 µM (inactive) | > 100 µM (inactive) | > 100 µM (inactive) | > 100 µM (inactive) | > 100 µM | > 100 µM (inactive) | > 100 µM (inactive) | > 100 µM (inactive) | > 100 µM (inactive) | > 100 µM (inactive) | > 100 µM (inactive) | > 100 µM (inactive) | > 100 µM (inactive) | > 100 µM (inactive) | > 100 µM (inactive) | > 100 µM (inactive) | > 100 µM (inactive)
5 | C[C@H](CCC(=O)O)[C@H]1CC[C@H]2[C@@H]3[C@H](O)C[C@@H]4C[C@H](O)CC[C@]4(C)[C@H]3C[C@H](O)[C@]12C | > 100 µM (inactive) | > 100 µM (inactive) | > 100 µM (inactive) | > 100 µM (inactive) | > 100 µM (inactive) | > 100 µM (inactive) | > 100 µM (inactive) | > 100 µM | > 100 µM (inactive) | > 100 µM (inactive) | > 100 µM (inactive) | > 100 µM (inactive) | > 100 µM (inactive) | > 100 µM (inactive) | > 100 µM (inactive) | > 100 µM (inactive) | > 100 µM (inactive) | > 100 µM (inactive) | > 100 µM (inactive) | > 100 µM (inactive)
6 | O=S1(=O)NN=C(NCc2ccc(F)cc2)c2ccccc21 | > 100 µM (inactive) | 95.5 µM (inactive) | 36.3 µM (inactive) | > 100 µM (inactive) | 17.5 µM (inactive) | > 100 µM (inactive) | > 36 µM (inactive) | > 64.1 µM | > 48 µM (inactive) | > 67.6 µM (inactive) | > 50.9 µM (inactive) | 23.7 µM (inactive) | > 100 µM (inactive) | 67.5 µM (inactive) | 24.7 µM (inactive) | > 40.7 µM (inactive) | 69.2 µM (inactive) | > 100 µM (inactive) | > 100 µM (inactive) | > 89.5 µM (inactive)
7 | O=C(Sc1c(-c2ccccc2)c(=O)n(-c2ccccc2)c(=S)n1-c1ccccc1)c1ccco1 | > 100 µM (inactive) | > 100 µM (inactive) | > 100 µM (inactive) | > 100 µM (inactive) | > 73.5 µM (inactive) | > 100 µM (inactive) | 27.5 µM (inactive) | > 89.1 µM | > 100 µM (inactive) | > 100 µM (inactive) | > 100 µM (inactive) | 18.7 µM (inactive) | > 100 µM (inactive) | 99.3 µM (inactive) | > 52.2 µM (inactive) | 33.8 µM (inactive) | > 31.6 µM (inactive) | > 100 µM (inactive) | > 100 µM (inactive) | > 100 µM (inactive)
8 | CCOC(CNCCC(=O)OC)OCC | > 10 µM (inactive) | > 10 µM (inactive) | > 10 µM (inactive) | > 10 µM (inactive) | > 10 µM (inactive) | > 10 µM (inactive) | > 10 µM (inactive) | > 10 µM | > 10 µM (inactive) | > 10 µM (inactive) | > 10 µM (inactive) | > 10 µM (inactive) | > 10 µM (inactive) | > 10 µM (inactive) | > 10 µM (inactive) | > 10 µM (inactive) | > 10 µM (inactive) | > 10 µM (inactive) | > 10 µM (inactive) | > 10 µM (inactive)
9 | CCOC(=O)CCC(NC(=O)C(N)Cc1ccc(N(CCCl)CCCl)cc1)C(=O)OCC (stereo not given) | 0.675 µM (active) | 0.0532 µM (active) | 0.187 µM (active) | 0.377 µM (active) | 2.24 µM (inactive) | 0.43 µM (active) | 0.0451 µM (active) | 0.538 µM | 0.624 µM (active) | 0.662 µM (active) | 0.475 µM (active) | < 0.0246 µM (active) | 32.1 µM (inactive) | 0.667 µM (active) | 0.253 µM (active) | 1.82 µM (inactive) | 1.22 µM (inactive) | 0.249 µM (active) | 1.52 µM (inactive) | 0.327 µM (active)
10 | O=[N+]([O-])/C=C/c1cn(CCCCCn2cc(/C=C/[N+](=O)[O-])c3ccccc32)c2ccccc12 | 3.64 µM (inactive) | 4.66 µM (inactive) | 0.611 µM (active) | 0.408 µM (active) | 1.87 µM (inactive) | 4.02 µM (inactive) | 3.05 µM (inactive) | 2.17 µM | 2.44 µM (inactive) | 1.04 µM (active) | 0.392 µM (active) | 1.04 µM (active) | 1.94 µM (inactive) | 1.78 µM (inactive) | 19.8 µM (inactive) | 0.24 µM (active) | 3.27 µM (inactive) | 2.19 µM (inactive) | 1.69 µM (inactive) | 17.7 µM (inactive)
11 | Cc1cc(=O)oc2cc(OC(=O)Nc3ccccc3)ccc12 | 40.4 µM (inactive) | 74 µM (inactive) | > 100 µM (inactive) | 88.1 µM (inactive) | 64.4 µM (inactive) | 69.5 µM (inactive) | 40.8 µM (inactive) | 50.9 µM | > 100 µM (inactive) | 84.3 µM (inactive) | > 100 µM (inactive) | 27.2 µM (inactive) | 64.4 µM (inactive) | 61 µM (inactive) | 29.3 µM (inactive) | 25.4 µM (inactive) | > 100 µM (inactive) | 76.9 µM (inactive) | 32.4 µM (inactive) | > 100 µM (inactive)
12 | COc1cc(N(C)C)c(OC)cc1/C=C\c1ccnc2ccccc12 | > 10 µM (inactive) | 6.12 µM (inactive) | 0.746 µM (active) | 0.462 µM (active) | 3.25 µM (inactive) | 3.86 µM (inactive) | 3.4 µM (inactive) | 0.652 µM | > 10 µM (inactive) | 3.62 µM (inactive) | 4.49 µM (inactive) | 3.56 µM (inactive) | 3.1 µM (inactive) | 1.72 µM (inactive) | 2.74 µM (inactive) | 2.71 µM (inactive) | 3.73 µM (inactive) | 3.46 µM (inactive) | 0.46 µM (active) | 6.38 µM (inactive)
